Entries after “also recorded” stand apart in the source; their conditions may differ. Like-named read-outs stand apart in the source and are kept apart here.
What was measured:
[1] = biological target: T1, Bruton's tyrosine kinase (BTK) (Homo sapiens, UniProt Q06187); experiment: BTK cell-free enzymatic assay; type: biochemical
T1 construct: from tissue; host or cells: whole blood
Text: (§1) (S)-1-(1-acryloylpiperidin-3-yl)-2-fluoro-5,6,7,8,9,10-hexahydrocyclohepta[b]indole-4-carboxamide, hereinafter referred to as “Compound 1”, is an orally available, selective, potent inhibitor of Bruton's tyrosine kinase (BTK), thereby providing potential treatment options in BTK-driven diseases. The potency of Compound 1 for BTK inhibition is in the nM range in both cell-free enzymatic and whole blood functional assays.

BTK = BTK inactivation kinetics in peripheral and CNS tissue
Text: as §1

[2] = Phase 1 food effect on pharmacokinetics; type: in vivo, human; conditions: for Tmax / half-life / AUC(0-inf) / Cmax: human, plasma, oral; for AUC(0-inf) / Cmax: mean
Text: Cohort 11 is a randomized, 2-treatment, 2-period, 2-sequence, single-dose level food effect evaluation. The formulation used in Cohort 11 is Formulation A. In Treatment Sequence FH, subjects receive Compound 1 in the fasted state on Day 1, and a second dose in the fed state (high-fat, high-calorie meal) on Day 8. In Treatment Sequence HF, subjects receive Compound 1 in the fed state (high-fat, high-calorie meal) on Day 1 and a second dose in the fasted state on Day 8. Days 2-7 are washout days.
Results: Preliminary pharmacokinetic results evaluating the effect of food on Compound 1 PK are presented, including 12 subjects from Cohort 11, […] 15 mg under fasting conditions, or in a fed state (with a moderate-fat meal or with a high-fat high-calorie meal). Preliminary PK parameters are presented in Table 48 (all pharmacokinetic parameters of […] are reported as Mean (% coefficient of variation), except for Tmax and t/2, which are reported as Median (Min, Max)), and in FIG. 28.

CYP3A = experiment: Phase 1 drug-drug interaction with itraconazole (strong CYP3A inhibitor); type: in vivo, human; conditions: for AUC(0-inf) / Cmax / T1/2 / Tmax: Cohort 12, 2 mg single dose; for AUC(0-inf) / Cmax: mean; for T1/2 / Tmax: median
Method: Cohort 12 is an open-label, fixed-sequence, multiple-dose DDI study with itraconazole (ITZ). Subjects receive a single oral dose of Compound 1 administered in the fasted state on Day 1. Beginning on Day 3 and continuing through to Day 6, subjects receive itraconazole 200 mg once daily (QD) in a fasted state. On Day 5, subjects receive Compound 1 administered in the fasted state, 1 hour after administration of itraconazole.
Results. Preliminary pharmacokinetic results evaluating the drug-drug interaction effect of a strong CYP3A inhibitor (itraconazole) on Compound 1 PK are presented, including 9 subjects from Cohort 12 receiving single doses of 2 mg Compound 1 under fasting conditions alone or in combination with once daily itraconazole 200 mg. Preliminary PK parameters are presented in Table 49 (all pharmacokinetic parameters of Table 49 are reported as Mean (% coefficient of variation), except for Tmax and t1/2, which are reported as Median (Min, Max)), and in FIG. 29 presenting the mean (SD) plasma concentration-time profiles of Compound 1.

[3] = Phase 1 safety and tolerability; type: in vivo, human; conditions: healthy subjects, blinded safety data
Method: The study investigates the administration of Compound 1 to healthy human subjects, to evaluate the safety, tolerability and PK of single and multiple-escalating doses. Additional objectives include assessing the effect of formulation on PK, the effect of food on PK, the effect of a CYP3A inhibitor on PK and the effect of Compound 1 on CYP3A activity. PK parameters including AUC, AUC, Cmax, and Tmax are determined. An additional exploratory objective evaluates pharmacodynamics, as the time-course of BTK inhibition. The study is conducted with up to 144 healthy male and female subjects, aged 18-55 years, with a body weight over 48 kg, BMI 18.5-30.0 kg/m^2, with no clinically significant abnormalities.
Safety is assessed throughout the study and PK and PD are characterized using serial blood samples collected up to 48 hours post-dose for Compound 1 plasma concentrations, BTK target occupancy (TO) and target engagement (TE). Cerebrospinal fluid (CSF) samples are collected at 2 hours post-dose to characterize the relationship between Compound 1 plasma concentrations and CNS penetrance (CSF/Unbound plasma concentration). Compound 1 PK parameters (e.g., AUClast, AUCinf, Cmax, Tmax, t1/2) are estimated by standard noncompartmental methods. […]

[4] = 15 mg, Cohort 11, 15 mg single dose, Fasted
[5] = 15 mg, Cohort 11, 15 mg single dose, High-Fat
[6] = 15 mg, Cohorts 2 and 7, 15 mg single dose, Moderate-Fat
[7] = 2 mg Compound 1, itraconazole 200 mg once daily, fasting
[8] = fasted, Day 5 (+ITZ 200 mg once daily)
[9] = single 2 mg dose, fasting, alone or with itraconazole 200 mg once daily

T1 sequence (Q06187 whole entry, species assumed): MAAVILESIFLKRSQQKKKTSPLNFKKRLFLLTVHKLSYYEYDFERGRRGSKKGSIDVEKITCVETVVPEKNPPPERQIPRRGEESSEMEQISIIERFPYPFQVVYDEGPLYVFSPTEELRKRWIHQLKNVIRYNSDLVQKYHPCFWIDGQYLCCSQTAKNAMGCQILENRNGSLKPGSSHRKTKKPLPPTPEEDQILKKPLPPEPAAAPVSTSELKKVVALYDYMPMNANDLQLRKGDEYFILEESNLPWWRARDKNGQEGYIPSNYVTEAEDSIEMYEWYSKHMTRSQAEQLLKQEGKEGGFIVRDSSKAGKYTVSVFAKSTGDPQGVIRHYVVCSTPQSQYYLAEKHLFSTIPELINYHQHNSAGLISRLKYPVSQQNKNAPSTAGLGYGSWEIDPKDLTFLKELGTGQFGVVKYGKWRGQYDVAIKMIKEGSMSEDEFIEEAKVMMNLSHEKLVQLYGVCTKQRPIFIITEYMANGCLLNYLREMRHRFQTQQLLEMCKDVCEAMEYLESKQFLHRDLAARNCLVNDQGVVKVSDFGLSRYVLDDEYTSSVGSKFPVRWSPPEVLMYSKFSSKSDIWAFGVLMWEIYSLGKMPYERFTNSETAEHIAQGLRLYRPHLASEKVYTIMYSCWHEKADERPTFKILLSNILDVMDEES

C=CC(=O)N1CCC[C@@H](c2c(F)cc(C(N)=O)c3[nH]c4c(c23)CCCCC4)C1 [Compound 1, (S)-1-(1-acryloylpiperidin-3-yl)-2-fluoro-5,6,7,8,9,10-hexahydrocyclohepta[b]indole-4-carboxamide]
potency for BTK inhibition [1]: nM range
BTK inactivation kinetics (BTK): rapid
AUC0-inf, High-Fat/Fasted % GMR - paired ([2]; 15 mg single dose): 120.3%
AUC0-inf, Moderate-Fat/Fasted % GMR - unpaired ([2]; 15 mg single dose): 107.9%
Cmax, High-Fat/Fasted % GMR - paired ([2]; 15 mg single dose): 68.0%
Cmax, Moderate-Fat/Fasted % GMR - unpaired ([2]; 15 mg single dose): 74.1%
Tmax ([2]; both sexes, 15 mg, single 15 mg dose, fasting, moderate-fat meal or high-fat high-calorie meal, read-out: mean plasma Tmax): 1 to 2.5 h
half-life ([2]; both sexes, 15 mg, single 15 mg dose, fasting, moderate-fat meal or high-fat high-calorie meal, read-out: terminal half-life (converted)): ~3 h
AUC(0-inf) [2, 4]: 312 ng·h/mL
Cmax [2, 4]: 137 ng/mL
half-life ([2]; 15 mg, Cohort 11, 15 mg single dose, Fasted, median, read-out: T1/2 (converted)): 2.89 h
Tmax ([2]; 15 mg, Cohort 11, 15 mg single dose, Fasted, median, read-out: Tmax): 1 h
AUC(0-inf) [2, 5]: 356 ng·h/mL
Cmax [2, 5]: 85.5 ng/mL
half-life ([2]; 15 mg, Cohort 11, 15 mg single dose, High-Fat, median, read-out: T1/2 (converted)): 2.99 h
Tmax ([2]; 15 mg, Cohort 11, 15 mg single dose, High-Fat, median, read-out: Tmax): 2.5 h
AUC(0-inf) [2, 6]: 322 ng·h/mL
Cmax [2, 6]: 101 ng/mL
half-life ([2]; 15 mg, Cohorts 2 and 7, 15 mg single dose, Moderate-Fat, median, read-out: T1/2 (converted)): 2.9 h
Tmax ([2]; 15 mg, Cohorts 2 and 7, 15 mg single dose, Moderate-Fat, median, read-out: Tmax): 1.5 h
effect of food on PK ([2]; moderate fat, or high-fat high calorie meal, 15 mg): no clinically significant effect
increase of AUCinf on coadministration of itraconazole (CYP3A; [7]): 15%
increase of Cmax on coadministration of itraconazole (CYP3A; [7]): 23%
AUC(0-inf) (CYP3A; fasted, Day 1 (Alone)): 46.7 ng·h/mL
Cmax (CYP3A; fasted, Day 1 (Alone)): 21.2 ng/mL
T1/2 (CYP3A; fasted, Day 1 (Alone)): 3.13 h
Tmax (CYP3A; fasted, Day 1 (Alone)): 1.0 h
AUC(0-inf) (CYP3A; [8]): 54.4 ng·h/mL
Cmax (CYP3A; [8]): 26.3 ng/mL
T1/2 (CYP3A; [8]): 3.14 h
Tmax (CYP3A; [8]): 1.5 h
AUC0-inf, % GMR ITZ/Alone (CYP3A; Cohort 12, 2 mg, fasted): 115%
Cmax, % GMR ITZ/Alone (CYP3A; Cohort 12, 2 mg, fasted): 123%
effect of a strong CYP3A inhibitor on PK (CYP3A; coadministration of itraconazole): no clinically significant effect
mean plasma Tmax (CYP3A; [9]): 1.0 to 1.5 h
terminal half-life (CYP3A; [9]): approximately 3 hours
safety and tolerability ([3]; MAD cohort, 15 mg once daily for 10 days, fed): generally well tolerated with no serious adverse events or early study discontinuations reported
safety and tolerability ([3]; SAD cohorts, single dose 5 to 200 mg, fed (moderate-fat meal)): generally well tolerated with no serious adverse events or early study discontinuations reported; also recorded: well tolerated across the dose range

— patent US20250243176A1, “(S)-1-(1-ACRYLOYLPIPERIDIN-3-YL)-2-FLUORO-5,6,7,8,9,10-HEXAHYDROCYCLO HEPTA[B]INDOLE-4-CARBOXAMIDE, AND RELATED CRYSTALLINE FORMS, COMPOSITIONS, AND METHODS THEREOF” (GB005, Inc., priority 2021, published 2025)
